Measured values reported in ChEMBL document CHEMBL1201862, “PubChem BioAssay data set” (2004).
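Compound exposure: 48 hours, 5 concentrations, 96-well plates. At the GI50, growth is halved.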 The source made the active and inactive calls. Rule as the data show it: active = GI50 up to about 1.1 µM and inactive = higher.

Key:
Assay in all cases: inhibition of tumour cell growth, NCI panel, 48 h
[1] = test system: A498
[2] = test system: ACHN
[3] = test system: COLO 205
[4] = test system: EKVX
[5] = test system: HL-60
[6] = test system: HOP-62
[7] = test system: HOP-92
[8] = test system: HT-29
[9] = test system: Hs-578T
[10] = test system: IGROV-1
[11] = test system: KM12
[12] = test system: MDA-MB-231
[13] = test system: NCI-H226
[14] = test system: OVCAR-3
[15] = test system: RPMI-8226
[16] = test system: SK-OV-3
[17] = test system: SN12C
[18] = test system: SNB-75
[19] = test system: U-251
[20] = test system: UACC-257

OCCc1ccsc1-c1sc(-c2cc(CCO)c(-c3sc(-c4cc(CCO)c(-c5sccc5CCO)s4)cc3CCO)s2)cc1CCO
GI50 [1]: 2 µM (inactive) | GI50 [2]: 1.47 µM (inactive) | GI50 [3]: 1.54 µM (inactive) | GI50 [4]: 1.26 µM (inactive) | GI50 [5]: 1.53 µM (inactive) | GI50 [6]: 1.38 µM (inactive) | GI50 [7]: 1.14 µM (inactive) | GI50 [8]: 1.77 µM (inactive) | GI50 [9]: 3.13 µM (inactive) | GI50 [10]: 1.21 µM (inactive) | GI50 [11]: 0.621 µM (active) | GI50 [12]: 2.83 µM (inactive) | GI50 [13]: 1.65 µM (inactive) | GI50 [14]: 1.38 µM (inactive) | GI50 [15]: 0.344 µM (active) | GI50 [16]: 1.64 µM (inactive) | GI50 [17]: 1.85 µM (inactive) | GI50 [18]: 1.27 µM (inactive) | GI50 [19]: 0.957 µM (active) | GI50 [20]: 1.13 µM (inactive)

Cn1c(=O)cc(NNc2ccc(Cl)c(Cl)c2)[nH]c1=O
GI50 [1]: 36.8 µM (inactive) | GI50 [2]: 5.46 µM (inactive) | GI50 [3]: 18.9 µM (inactive) | GI50 [4]: 10 µM (inactive) | GI50 [5]: 8 µM (inactive) | GI50 [6]: 16.4 µM (inactive) | GI50 [7]: 14.9 µM (inactive) | GI50 [8]: 18 µM (inactive) | GI50 [9]: 20.4 µM (inactive) | GI50 [10]: 6.52 µM (inactive) | GI50 [11]: 12.3 µM (inactive) | GI50 [12]: 10.8 µM (inactive) | GI50 [13]: 19.5 µM (inactive) | GI50 [14]: 15.5 µM (inactive) | GI50 [15]: > 10 µM (inactive) | GI50 [16]: 20.8 µM (inactive) | GI50 [17]: 4.34 µM (inactive) | GI50 [18]: 23 µM (inactive) | GI50 [19]: 12.4 µM (inactive) | GI50 [20]: 14.9 µM (inactive)

Cc1ccc(S(=O)(=O)N2CCN(S(=O)(=O)c3ccc(C)cc3)CCN(S(=O)(=O)c3ccc(C)cc3)Cc3cc(C#N)c(C#N)cc3CN(S(=O)(=O)c3ccc(C)cc3)CC2)cc1
GI50 [1]: 20.7 µM (inactive) | GI50 [2]: > 100 µM (inactive) | GI50 [3]: > 100 µM (inactive) | GI50 [4]: > 100 µM (inactive) | GI50 [5]: > 100 µM (inactive) | GI50 [6]: > 100 µM (inactive) | GI50 [7]: 25.3 µM (inactive) | GI50 [8]: > 100 µM (inactive) | GI50 [9]: > 100 µM (inactive) | GI50 [10]: > 100 µM (inactive) | GI50 [11]: > 100 µM (inactive) | GI50 [12]: 31 µM (inactive) | GI50 [13]: 56.2 µM (inactive) | GI50 [14]: > 100 µM (inactive) | GI50 [15]: > 100 µM (inactive) | GI50 [16]: > 100 µM (inactive) | GI50 [17]: > 100 µM (inactive) | GI50 [18]: 19.1 µM (inactive) | GI50 [19]: > 100 µM (inactive) | GI50 [20]: > 100 µM (inactive)

CCOP(=O)(OCC)/C(C#N)=C/c1ccccn1
GI50 [1]: > 100 µM (inactive) | GI50 [2]: > 100 µM (inactive) | GI50 [3]: > 100 µM (inactive) | GI50 [4]: > 100 µM (inactive) | GI50 [5]: > 100 µM (inactive) | GI50 [6]: > 100 µM (inactive) | GI50 [7]: > 100 µM (inactive) | GI50 [8]: > 100 µM (inactive) | GI50 [9]: > 100 µM (inactive) | GI50 [10]: > 100 µM (inactive) | GI50 [11]: > 100 µM (inactive) | GI50 [12]: > 100 µM (inactive) | GI50 [13]: > 100 µM (inactive) | GI50 [14]: > 100 µM (inactive) | GI50 [15]: > 100 µM (inactive) | GI50 [16]: > 100 µM (inactive) | GI50 [17]: > 100 µM (inactive) | GI50 [18]: > 100 µM (inactive) | GI50 [19]: > 100 µM (inactive) | GI50 [20]: > 100 µM (inactive)
